Where “and” joins values, the source holds several entries; their conditions need not be identical. Equal values may be shown once. Toxic doses and inconclusive results are not listed. Rule as the data show it: active = T/C of 150% or more; inactive = T/C below 125%.
System: L1210 leukemia ip in BDF1 mice, survival T/C
Assay: NCI In Vivo Anticancer Drug Screen. Data for tumor model L1210 Leukemia (intraperitoneal) in B6D2F1 (BDF1) mice
Settings: endpoint: mean survival time, higher = longer survival
In short: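 Ratio derived from survival: compound-dosed mice over vehicle-dosed mice, all bearing a transplantable tumor.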

[1] = dose: 100.0 mg/kg/injection, schedule: Q04DX002 (ip), vehicle: Klucel (hydroxypropylcellulose) (HPC)
[2] = dose: 200.0 mg/kg/injection, schedule: Q04DX002 (ip), vehicle: Klucel (hydroxypropylcellulose) (HPC)
[3] = dose: 400.0 mg/kg/injection, schedule: Q04DX002 (ip), vehicle: Klucel (hydroxypropylcellulose) (HPC)
[4] = dose: 50.0 mg/kg/injection, schedule: Q01DX009 (ip), vehicle: saline with Tween-80
[5] = dose: 100.0 mg/kg/injection, schedule: Q01DX009 (ip), vehicle: saline with Tween-80
[6] = dose: 100.0 mg/kg/injection, schedule: Q01DX009 (ip), vehicle: Klucel (hydroxypropylcellulose) (HPC)
[7] = dose: 200.0 mg/kg/injection, schedule: Q01DX009 (ip), vehicle: Klucel (hydroxypropylcellulose) (HPC)
[8] = dose: 400.0 mg/kg/injection, schedule: Q01DX009 (ip), vehicle: Klucel (hydroxypropylcellulose) (HPC)
[9] = dose: 100.0 mg/kg/injection, schedule: Q01DX001 (ip), vehicle: carboxymethylcellulose (CMC)
[10] = dose: 100.0 mg/kg/injection, schedule: Q01DX001 (ip), vehicle: other
[11] = dose: 400.0 mg/kg/injection, schedule: Q01DX001 (ip), vehicle: other
[12] = dose: 100.0 mg/kg/injection, schedule: Q01DX009 (ip), vehicle: saline
[13] = dose: 200.0 mg/kg/injection, schedule: Q01DX009 (ip), vehicle: saline
[14] = dose: 200.0 mg/kg/injection, schedule: Q01DX009 (ip), vehicle: saline with Tween-80
[15] = dose: 100.0 mg/kg/injection, schedule: Q04DX003 (ip), vehicle: saline with Tween-80
[16] = dose: 200.0 mg/kg/injection, schedule: Q04DX003 (ip), vehicle: saline with Tween-80
[17] = dose: 400.0 mg/kg/injection, schedule: Q04DX003 (ip), vehicle: saline with Tween-80

Measured: T/C

CCCCCCCCCCCCCCCCC[CH2][Sn]([Cl])([CH2]CCCCCCCCCCCCCCCCC)[CH2]CCCCCCCCCCCCCCCCC
inactive: [1] 92 % of control | [2] 100 % of control | [3] 96 % of control

CCCCCCCCCCOB(OCCCCCCCCCC)OCCCCCCCCCC
inactive: dose: 25.0 mg/kg/injection, schedule: Q01DX009 (ip), vehicle: saline with Tween-80 93 % of control | [4] 96 % of control | [5] 96 % of control

CNC(=O)Nc1cccc2c(=O)[nH][nH]c(=O)c12
inactive: [6] 114 % of control | dose: 100.0 mg/kg/injection, schedule: Q04DX003 (ip), vehicle: Klucel (hydroxypropylcellulose) (HPC) 97 % of control | [7] 100 % of control | dose: 200.0 mg/kg/injection, schedule: Q04DX003 (ip), vehicle: Klucel (hydroxypropylcellulose) (HPC) 108 % of control | [8] 86 % of control | dose: 400.0 mg/kg/injection, schedule: Q04DX003 (ip), vehicle: Klucel (hydroxypropylcellulose) (HPC) 91 % of control

CC(=O)Oc1ccc(OC(C)=O)c2c1C(=O)c1ccccc1C2=O
inactive: dose: 50.0 mg/kg/injection, schedule: Q01DX001 (ip), vehicle: carboxymethylcellulose (CMC) 104 % of control | [9] 110 % of control | dose: 200.0 mg/kg/injection, schedule: Q01DX001 (ip), vehicle: carboxymethylcellulose (CMC) 102 % of control | dose: 400.0 mg/kg/injection, schedule: Q01DX001 (ip), vehicle: carboxymethylcellulose (CMC) 110 % of control

OC(Nc1ccccn1)(C(F)(F)F)C(F)(F)F
inactive: dose: 100.0 mg/kg/injection, schedule: Q01DX001 (ip), vehicle: saline 103 % of control

CC[C@@]1(O)C(=O)OCc2c1cc1n(c2=O)Cc2cc3ccccc3[n+]([O-])c2-1
inactive: dose: 1.0 mg/kg/injection, schedule: Q01DX015 (ip), vehicle: saline 112 % of control | dose: 8.0 mg/kg/injection, schedule: Q01DX015 (ip), vehicle: saline 86 % of control | dose: 12.5 mg/kg/injection, schedule: Q01DX001 (ip), vehicle: saline 115 % of control

O=c1cc(Nc2cccc(-c3ccccc3)c2)[nH]c(=O)[nH]1
inactive: dose: 87.5 mg/kg/injection, schedule: Q01DX001 (ip), vehicle: gum acacia 90 % of control | dose: 175.0 mg/kg/injection, schedule: Q01DX001 (ip), vehicle: gum acacia 102 % of control | dose: 350.0 mg/kg/injection, schedule: Q01DX001 (ip), vehicle: gum acacia 95 % of control

ClCC1Oc2ccccc2O1
inactive: [10] 101 % of control | [11] 97 % of control

O=c1sc(N=Nc2ccccc2)nn1-c1ccccc1
inactive: dose: 50.0 mg/kg/injection, schedule: Q01DX009 (ip), vehicle: saline 91 % of control | [12] 88 % of control | [13] 93 % of control

COc1ccc(C(O)c2ccccc2C(=O)Nc2ccccc2)cc1 (stereo unspecified)
inactive: [5] 98 % of control | [14] 88 % of control | dose: 400.0 mg/kg/injection, schedule: Q01DX009 (ip), vehicle: saline with Tween-80 95 % of control

N#CCCC1=C(O)CCCC1=O
inactive: [4] 93 % of control | [5] 93 % of control | [14] 97 % of control

CCCCCCCCCCCCCCCCCCOS(=O)(=O)c1ccc(C)cc1
inactive: dose: 12.5 mg/kg/injection, schedule: Q01DX009 (ip), vehicle: Klucel (hydroxypropylcellulose) (HPC) 98 % of control | dose: 25.0 mg/kg/injection, schedule: Q01DX009 (ip), vehicle: Klucel (hydroxypropylcellulose) (HPC) 95 % of control | dose: 50.0 mg/kg/injection, schedule: Q01DX009 (ip), vehicle: Klucel (hydroxypropylcellulose) (HPC) 95 % of control

CCc1ccc(NC(=O)c2cc(OC)c(OC)c(OC)c2)cc1
inactive: [6] 100 % of control | [7] 97 % of control | [8] 101 % of control

CC(=O)OC1=CC(=O)c2ccccc2C1=O
inactive: dose: 5.0 mg/kg/injection, schedule: Q01DX001 (ip), vehicle: carboxymethylcellulose (CMC) 101 % of control | dose: 10.0 mg/kg/injection, schedule: Q01DX001 (ip), vehicle: carboxymethylcellulose (CMC) 101 % of control | dose: 20.0 mg/kg/injection, schedule: Q01DX001 (ip), vehicle: carboxymethylcellulose (CMC) 101 % of control | dose: 40.0 mg/kg/injection, schedule: Q01DX001 (ip), vehicle: carboxymethylcellulose (CMC) 107 % of control | dose: 80.0 mg/kg/injection, schedule: Q01DX001 (ip), vehicle: carboxymethylcellulose (CMC) 107 % of control | [9] 104 % of control

C[N+](C)(C)C12CCC(CC1)C1([N+](C)(C)C)CCC2CC1
inactive: [1] 109 % of control | [2] 113 % of control | [3] 117 % of control

CCC(/C=N/N=C(N)N)OC (stereo unspecified)
inactive: dose: 2.0 mg/kg/injection, schedule: Q01DX Z (oral), vehicle: saline 103 % of control | dose: 4.0 mg/kg/injection, schedule: Q01DX Z (oral), vehicle: saline 101 % of control | dose: 8.0 mg/kg/injection, schedule: Q01DX Z (oral), vehicle: saline 106 % of control | dose: 16.0 mg/kg/injection, schedule: Q01DX Z (oral), vehicle: saline 100 % of control | dose: 32.0 mg/kg/injection, schedule: Q01DX Z (oral), vehicle: saline 110 % of control | dose: 64.0 mg/kg/injection, schedule: Q01DX Z (oral), vehicle: saline 100 % of control | dose: 128.0 mg/kg/injection, schedule: Q01DX Z (oral), vehicle: saline 104 % of control and 113 % of control | dose: 256.0 mg/kg/injection, schedule: Q01DX Z (oral), vehicle: saline 98 % of control and 115 % of control

O=C1C(Cl)(Cl)CCCC1(Cl)Cl
inactive: [4] 98 % of control | [5] 105 % of control | [14] 110 % of control

CNC(=O)NN
inactive: dose: 25.0 mg/kg/injection, schedule: Q04DX002 (ip), vehicle: saline with Tween-80 97 % of control | dose: 50.0 mg/kg/injection, schedule: Q04DX002 (ip), vehicle: saline with Tween-80 93 % of control | dose: 100.0 mg/kg/injection, schedule: Q04DX002 (ip), vehicle: saline with Tween-80 90 % of control

Nc1ncnc2c1nnn2CCCCC(N)C(=O)O (stereo unspecified)
inactive: dose: 100.0 mg/kg/injection, schedule: Q04DX003 (ip), vehicle: saline 111 % of control | dose: 200.0 mg/kg/injection, schedule: Q04DX003 (ip), vehicle: saline 106 % of control | dose: 400.0 mg/kg/injection, schedule: Q04DX003 (ip), vehicle: saline 95 % of control

COC(=O)CC(=O)OCC1C=CCC=C1
inactive: [15] 106 % of control | [16] 95 % of control | [17] 92 % of control

CCCNC(=O)CS(=O)(=O)c1ccc(N)cc1
inactive: [15] 97 % of control | [16] 95 % of control | [17] 97 % of control

CC1OC1CO (stereo unspecified)
inactive: [15] 96 % of control | [16] 101 % of control | [17] 89 % of control

CC1CN(c2ccccc2)CN1c1ccccc1 (stereo unspecified)
inactive: dose: 100.0 mg/kg/injection, schedule: Q04DX002 (sc), vehicle: olive oil, sesame oil, peanut oil 94 % of control | dose: 200.0 mg/kg/injection, schedule: Q04DX002 (sc), vehicle: olive oil, sesame oil, peanut oil 91 % of control | dose: 400.0 mg/kg/injection, schedule: Q04DX002 (sc), vehicle: olive oil, sesame oil, peanut oil 102 % of control

OC1CC2CCC1C21OCCO1 (stereo unspecified)
inactive: [12] 107 % of control | [13] 100 % of control | dose: 400.0 mg/kg/injection, schedule: Q01DX009 (ip), vehicle: saline 109 % of control

Cc1nc2c(=O)[nH]c(=O)[nH]c2[nH]c1=O
inactive: dose: 16.0 mg/kg/injection, schedule: Q01DX Z (ip), vehicle: methylcellulose (MC) 89 % of control | dose: 31.0 mg/kg/injection, schedule: Q01DX Z (ip), vehicle: methylcellulose (MC) 95 % of control | dose: 62.0 mg/kg/injection, schedule: Q01DX Z (ip), vehicle: methylcellulose (MC) 93 % of control | [10] 96 % of control | dose: 100.0 mg/kg/injection, schedule: Q04DX003 (ip), vehicle: other 100 % of control | dose: 125.0 mg/kg/injection, schedule: Q01DX Z (ip), vehicle: methylcellulose (MC) 101 % of control | dose: 200.0 mg/kg/injection, schedule: Q01DX001 (ip), vehicle: other 102 % of control | dose: 200.0 mg/kg/injection, schedule: Q04DX003 (ip), vehicle: other 111 % of control | [11] 102 % of control | dose: 400.0 mg/kg/injection, schedule: Q04DX003 (ip), vehicle: other 107 % of control

From PubChem BioAssay AID248 (DTP/NCI, 2004)
